Earlier results in patent publication US20120015039A1, “SUSTAINED RELEASE OF NUTRIENTS IN VIVO” (New World Pharmaceuticals, LLC, priority 2007, published 2012).

Legend:
mice = conditions: mouse, in vivo, iv

Row | SMILES | LD50 (mice) | concentration at which formation of EP is inhibited (Na/K ATPase)
1 | COC(=O)C1=CO[C@@H](O)[C@@H]2C(CO)=CC[C@H]12 [Genipin] | 382 mg/kg | –
2 | [O]=[V]([O-])([O-])[O-] [vanadate] | – | less than 1 micromolar
